Results: article PMC9019904, “AD Informer Set: Chemical tools to facilitate Alzheimer's disease drug discovery” (Alzheimer's & Dementia : Translational Research & Clinical …, 2022)
≈ marks a conversion by molar mass, not a printed value.

Columns and labels:
[1] = tested on: BV2 (mouse microglia) cell line; experiment: pHrodo-myelin phagocytosis/cell viability high content imaging assay: phagocytosis signal; type: cell-based; conditions: BV2 cells, 10 μM
Procedure, shortened: (§1)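 Simultaneous phagocytosis/viability imaging at approximately 22 h after adding pHrodo-myelin. Rising intensity flagged early apoptosis and falling intensity later apoptosis.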

[2] = tested on: HMC3 (human microglia) cell line; experiment: as above; type: cell-based; conditions: HMC3 cells, 10 μM
Procedure, shortened: as §1

cellular system = conditions: published cellular activity at 10 μM; cited from earlier work
[3] = tested on: BV2 (mouse microglia) cell line; experiment: pHrodo-myelin phagocytosis/cell viability high content imaging assay: viability (cell count, nuclear area, nuclear intensity); conditions: BV2 cells, 10 μM, cell count <70% control
Procedure, shortened: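 Viability was read by high-content imaging as cell count per well and nuclear intensity per cell, in murine BV2 and human HMC3 microglial lines. Cells received a single 10 μM compound dose for 48 h, including 20 h with pHrodo-myelin. Duplicate means are expressed as % of untreated control.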

[4] = tested on: protein product expressed by the gene target; conditions: cited from earlier work
physchem = conditions: pH 7.4, aqueous buffer, kinetic from dmso stock

SMILES | Inhibition of mouse microglial phagocytosis at 10 μM (<70% control) [1] | Inhibition of human microglial phagocytosis at 10 μM (<70% control) [2] | Reported as cell active (<10 μM) (cellular system) | Mouse microglial cytotoxicity at 10 μM (<70% control) [3] | Reported on-target biochemical potency [4] [nM] | solubility kinetic (physchem) [µM] | Stimulation of mouse microglial phagocytosis at 10 μM (>150% control) [1] | Reported on-target biochemical potency (nM) ([4]; SIG-1R (genes listed: SIG-1R and CHRM2), ref PubMed 20829307, 29127580)
c1cn2cc(-c3ccc4cn[nH]c4c3)nc(Nc3ccc(N4CCOCC4)cc3)c2n1 [Entospletinib (GS-9973)] | Y (The compound was found to inhibit phagocytosis (response threshold: <70% control) when murine immortalized microglial cells were dosed at 10 μM (Y: yes)) | Y (The compound was found to inhibit phagocytosis (response threshold: <70% control) when human immortalized microglial cells were dosed at 10 μM (Y: yes)) | Y (Published data supports that the compound is active in a cellular system when dosed at 10 μM (Y/N)) | Y (The compound was found to be cytotoxic (cell count threshold: <70% control) when murine immortalized microglial cells were dosed at 10 μM (Y: yes)) | 7.7 | 0.5 (≈ 0.206 µg/mL) |  | 
CN(C)CC1CCOC1(c1ccccc1)c1ccccc1.Cl (stereo not shown) [AN2/AVex-73 HCl (Blarcamesine)] |  |  | Y (Published data supports that the compound is active in a cellular system when dosed at 10 μM (Y/N)) |  |  | 174 | Y (The compound was found to stimulate phagocytosis (response threshold: >150% control) when murine immortalized microglial cells were dosed at 10 μM (Y: yes)) | SIG-1R = 860 nM
